Laboratory results: patent publication US20260248950A1, “ANTIMICROBIAL PEPTIDE DELIVERY SYSTEM AND MANUFACTURING METHOD BASED ON GOLD NANOPARTICLE-APTAMER CONJUGATE” (NES BIOTECHNOLOGY CO., LTD., priority 2022, published 2026)
≈ marks a conversion by molar mass, not a printed value. Read-outs that look alike come from different tables or passages of the source. Peptide text beside a SMILES is read from it. {SH} = thiol modification, used to bind gold nanoparticles

How the values were obtained:
[1] = system: Staphylococcus aureus; assay: microbe, parasite or virus in culture; format: cell-based
Description: (§1) An experiment was conducted to determine the minimum inhibitory concentration (MIC) for multi-resistant strains in an antimicrobial activity test. Pseudomonas aeruginosa, Acinetobacter baumannii, and Staphylococcus aureus were cultured in LB medium at 1×10^3 colony-forming units (CFU)/ml. Each strain was treated with WLBU2 peptide and antibiotics, such as ampicillin and erythromycin, at concentrations of 2, 4, 8, 16, 32, 64, 128, 256, and 512 μM, respectively, and then incubated at 37° C. for 18 to 24 hours.
(§2) The minimum inhibitory concentration (MIC) was determined as the […].

[2] = system: Acinetobacter baumannii; assay: microbe, parasite or virus in culture; format: cell-based
Description: as §1, §2

[3] = system: Pseudomonas aeruginosa; assay: microbe, parasite or virus in culture; format: cell-based
Description: as §1, §2

[4] = system: WLBU2; assay: SELEX aptamer selection, sequencing fold change of samples binding to WLBU2 vs control; conditions: samples binding to WLBU2 compared to the control group; SELEX repeated 11 times
Description: Aptamers specific to the antimicrobial peptide WLBU2 were developed using the SELEX (Systematic Evolution of Ligands by Exponential Enrichment) method. The SELEX process was repeated a total of 11 times, and the optimal aptamers with high binding affinity to WLBU2 were selected. The aptamer selection process was conducted according to the procedure illustrated in FIG. 1.
Among all the sequences confirmed through sequencing, four representative sequences showing a fold change greater than 2-fold in the samples binding to WLBU2 compared to the control group were developed.

[5] = Pseudomonas aeruginosa, LB medium, 1×10^3 CFU/ml, 37° C., 18 to 24 hours

CC1(C)S[C@@H]2[C@H](NC(=O)[C@H](N)c3ccccc3)C(=O)N2[C@H]1C(=O)O [Ampicillin, ampicillin]
MIC ([1]; Staphylococcus aureus): > 256 µM | MIC ([2]; Acinetobacter baumannii): > 256 µM | MIC [3, 5]: > 64 µM

CC[C@H]1OC(=O)[C@H](C)[C@@H](O[C@H]2C[C@@](C)(OC)[C@@H](O)[C@H](C)O2)[C@H](C)[C@@H](O[C@@H]2O[C@H](C)C[C@H](N(C)C)[C@H]2O)[C@](C)(O)C[C@@H](C)C(=O)[C@H](C)[C@@H](O)[C@]1(C)O [Erythromycin, erythromycin]
MIC ([1]; Staphylococcus aureus, LB medium, 1×10^3 CFU/ml, 37° C., 18 to 24 hours, read-out: MIC): > 128 µM | MIC ([2]; Acinetobacter baumannii, LB medium, 1×10^3 CFU/ml, 37° C., 18 to 24 hours, read-out: MIC): > 256 µM | MIC [3, 5]: > 64 µM

CC(C)[C@H](NC(=O)[C@H](Cc1c[nH]c2ccccc12)NC(=O)[C@H](CCCNC(=N)N)NC(=O)[C@H](CCCNC(=N)N)NC(=O)[C@@H](NC(=O)[C@@H](NC(=O)[C@H](CCCNC(=N)N)NC(=O)[C@@H](NC(=O)[C@@H](NC(=O)[C@H](CCCNC(=N)N)NC(=O)[C@H](CCCNC(=N)N)NC(=O)[C@@H](NC(=O)[C@H](Cc1c[nH]c2ccccc12)NC(=O)[C@H](CCCNC(=N)N)NC(=O)[C@H](CCCNC(=N)N)NC(=O)[C@@H](NC(=O)[C@H](CCCNC(=N)N)NC(=O)[C@H](CCCNC(=N)N)NC(=O)[C@@H](NC(=O)[C@H](Cc1c[nH]c2ccccc12)NC(=O)[C@H](CCCNC(=N)N)NC(=O)[C@@H](N)CCCNC(=N)N)C(C)C)C(C)C)C(C)C)C(C)C)C(C)C)C(C)C)C(C)C)C(=O)N[C@@H](CCCNC(=N)N)C(=O)N[C@@H](CCCNC(=N)N)C(=O)O [WLBU2] (H-RRWVRRVRRWVRRVVRVVRRWVRR-OH; N-terminus and C-terminus assumed)
MIC ([1]; read-out: MIC): 4 µM (≈ 13.6 µg/mL) | MIC ([2]; read-out: MIC): 8 µM (≈ 27.2 µg/mL) | MIC [3]: 4 µM (≈ 13.6 µg/mL)

B1: WLBU2-R-1: SELEX aptamer specific to WLBU2, SEQ No. 2 (nucleic acid)
DNA: AAAACGACGGCCAGTCTTTCGCGGGGTCTGGGGTTGGGGTTGTGGGTTAATTGCACTTCGAAATGCATGGTCATAGCTGT
modifications: listed as DNA, chemistry not fully specified
FoldChange [4]: 3.28

B2: WLBU2-R-2: SELEX aptamer specific to WLBU2, SEQ No. 3 (nucleic acid)
DNA: AAAACGACGGCCAGTGGCTGGTAGGTTTGGGTGGTTTGGTTGGGATTCGGTTGGTTGGTACCAGCCATGGTCATAGCTGT
modifications: listed as DNA, chemistry not fully specified
FoldChange [4]: 3.67

B3: WLBU2-R-3: SELEX aptamer specific to WLBU2, SEQ No. 4 (nucleic acid)
DNA: AAAACGACGGCCAGTGCGCGCGCTTTGCTTGTGTGAGCATTGCTTTTGCATTATTGGTTTGGTTGGTGTGGTTCGTGCGCGCCATGGTCATAGCTGT
modifications: listed as DNA, chemistry not fully specified
FoldChange [4]: 2.7

B4: WLBU2-R: SELEX aptamer specific to WLBU2, SEQ No. 1 in Table 2; thiol-modified at 3′-terminal for binding to gold nanoparticles (nucleic acid)
DNA: AAAACGACGGCCAGTGCGCGCGCTTTGCTTGTGTGAGCATTGCTTTTGCATTATTGGTTTGGTTGGTGTGGTTCGTGCGCGCCATGGTCATAGCCTGT
modifications: DNA, 3' {SH}, backbone and methylation of C not given here
FoldChange [4]: 2.2
